pIC50: −log10 of the molar value.
What follows are molecules tested against BTK (Homo sapiens (Human), UniProt Q06187) (assay: BTK inhibition assay by Reaction Biology Corporation (33P-ATP, filter-binding)). Details: footnote a: from Reaction Biology Corporation.
BTK, sequence (Q06187 whole entry): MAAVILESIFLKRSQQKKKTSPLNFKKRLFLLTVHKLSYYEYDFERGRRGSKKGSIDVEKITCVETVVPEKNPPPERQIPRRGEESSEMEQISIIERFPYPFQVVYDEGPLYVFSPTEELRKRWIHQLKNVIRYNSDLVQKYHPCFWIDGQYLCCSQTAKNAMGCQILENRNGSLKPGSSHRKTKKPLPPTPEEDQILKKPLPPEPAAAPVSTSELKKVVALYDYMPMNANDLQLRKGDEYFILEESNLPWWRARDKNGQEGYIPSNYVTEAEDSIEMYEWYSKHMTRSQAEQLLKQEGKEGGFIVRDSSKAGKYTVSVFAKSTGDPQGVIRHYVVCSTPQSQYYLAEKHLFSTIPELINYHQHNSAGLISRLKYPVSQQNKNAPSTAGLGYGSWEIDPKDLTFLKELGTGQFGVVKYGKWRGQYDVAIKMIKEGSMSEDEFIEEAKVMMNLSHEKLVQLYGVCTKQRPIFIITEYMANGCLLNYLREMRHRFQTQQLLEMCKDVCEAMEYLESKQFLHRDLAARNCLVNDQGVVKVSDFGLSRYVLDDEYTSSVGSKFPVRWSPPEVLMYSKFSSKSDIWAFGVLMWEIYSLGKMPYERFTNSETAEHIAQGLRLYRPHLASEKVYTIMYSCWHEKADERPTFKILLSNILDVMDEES
Type: biochemical
Procedure: BTK inhibition Assay and selectivity Assay The assay was conducted either a by a third party (Reaction Biology Corporation, PA, USA) or in house.
a) Reagent and Procedure by Reaction Biology Corporation:
Base Reaction buffer; 20 mM Hepes (pH 7.5), 10 mM MgCl2, 1 mM EGTA, 0.02%. Brij35, 0.02 mg/ml BSA, 0.1 mM Na3VO4, 2 mM DTT, 1% DMSO. Required cofactors were added individually to each kinase reaction. Compound handling: testing compounds were dissolved in 100% DMSO to specific concentration. The serial dilution was conducted by Integra Viaflo Assist in DMSO.
The substrate was prepared in freshly prepared reaction buffer of above and required cofactors were added to the substrate solution. The kinase was delivered to the substrate solution and the mixture was gently mixed. Testing compounds in 100% DMSO was added to the kinase reaction mixture by Acoustic technology (Echo550; nanoliter range) and the new mixture was incubated for 20 min at room temperature. Then ^33P-ATP (Specific activity 10 μCi/μl) was added to the reaction mixture to initiate the reaction and the mixture was incubated for 2 hours at room temperature. The radioactivity was detected by filter-binding method and the kinase activity data was expressed as the percent of remaining kinase activity in test sample compared to vehicle (dimethyl sulfoxide) reaction. IC50 values and curve fits were obtained using Prism (GraphPad Software). The result is outlined in Table-I
In the case of `C=CC(=O)N1CCCC[C@H]1c1nc(-c2ccc(C(=O)Nc3cc(CC)ccn3)cc2)c(C(N)=O)n1N` [Example 73, (S)-2-(1-acryloylpiperidin-2-yl)-1-amino-4-(4-((4-ethylpyridin-2-yl)carbamoyl)phenyl)-1H-imidazole-5-carboxamide], the pIC50 was 8.01. Molecule `C=CC(=O)N1CCCC[C@H]1c1nc(-c2ccc(C(=O)Nc3cc(CC)ccn3)cc2)c(C(N)=O)n1NC` [Example 81, (S)-2-(1-acryloylpiperidin-2-yl)-4-(4-((4-ethylpyridin-2-yl)carbamoyl)phenyl)-1-(methylamino)-1H-imidazole-5-carboxamide] has a pIC50 of 7.96. For `C=CC(=O)N1CCCC[C@H]1c1nc(-c2ccc(C(=O)Nc3ccc(Cl)cn3)cc2)c(C(N)=O)n1N` [Example 86, (S)-2-(1-acryloylpiperidin-2-yl)-1-amino-4-(4-((5-chloropyridin-2-yl)carbamoyl)phenyl)-1H-imidazole-5-carboxamide], the pIC50 was 7.53. `C=CC(=O)N1CCCC[C@H]1c1nc(-c2ccc(C(=O)Nc3cc(Br)ccn3)cc2)c(C(N)=O)n1N` [Example 87, (S)-2-(1-acryloylpiperidin-2-yl)-1-amino-4-(4-((4-bromopyridin-2-yl)carbamoyl)phenyl)-1H-imidazole-5-carboxamide] gave a pIC50 of 8.36. In the case of `CC#CC(=O)N1CCCC[C@H]1c1nc(-c2ccc(C(=O)Nc3cc(Br)ccn3)cc2)c(C(N)=O)n1N` [Example 88, (S)-1-amino-4-(4-((4-bromopyridin-2-yl)carbamoyl)phenyl)-2-(1-(but-2-ynoyl)piperidin-2-yl)-1H-imidazole-5-carboxamide], the pIC50 was 7.65. For `C=CC(=O)N1CCCC[C@H]1c1nc(-c2ccc(C(=O)Nc3cc(I)ccn3)cc2)c(C(N)=O)n1N` [Example 89, (S)-2-(1-acryloylpiperidin-2-yl)-1-amino-4-(4-((4-iodopyridin-2-yl)carbamoyl)phenyl)-1H-imidazole-5-carboxamide], the pIC50 was 8.21. `C=CC(=O)N1CCCC[C@H]1c1nc(-c2ccc(C(=O)Nc3cc(-c4ccc(F)cc4)ccn3)cc2)c(C(N)=O)n1N` [Example 91, (S)-2-(1-acryloylpiperidin-2-yl)-1-amino-4-(4-((4-(4-fluorophenyl)pyridin-2-yl)carbamoyl)phenyl)-1H-imidazole-5-carboxamide] gave a pIC50 of 8.30. Molecule `C=CC(=O)N1CCC[C@@H](c2nc(-c3ccc(C(=O)Nc4cc(CC)ccn4)cc3)c(C(N)=O)n2N)C1` [Example 93, (R)-2-(1-acryloylpiperidin-3-yl)-1-amino-4-(4-((4-ethylpyridin-2-yl)carbamoyl)phenyl)-1H-imidazole-5-carboxamide] has a pIC50 of 7.84. `C=CC(=O)N1CCCC[C@H]1c1nc(-c2ccc(C(=O)Nc3nccs3)cc2)c(C(N)=O)n1N` [Example 105, (S)-2-(1-acryloylpiperidin-2-yl)-1-amino-4-(4-(thiazol-2-ylcarbamoyl)phenyl)-1H-imidazole-5-carboxamide] was tested, and the pIC50 was 7.73.

From patent US12291516B2, “Substituted 1-amino-1H-imidazole-5-carboxamide as Bruton's tyrosine kinase inhibitors” (Henan Zhiwei Biomedicine Co., Ltd., priority 2019, dated 2025)
